Each structure is given as a SMILES string. Values after ≈ are worked out from the molar mass of the structure shown.

For one compound, MIC results are on record in ChEMBL document CHEMBL3091403, “Desmethyl Macrolides: Synthesis and Evaluation of 4,8,10-Tridesmethyl Cethromycin” (2013).

Common to all, as to format: functional
Assay [1] concerns Staphylococcus aureus. Kind of assay: Antibacterial activity against Staphylococcus aureus ATCC 33591 harboring ribosomal ermA mutant.
Assay [2] concerns Escherichia coli. Kind of assay: Antibacterial activity against Escherichia coli DK/2058G harboring ribosomal A2058G mutant.
The test system of assay [3] is Staphylococcus aureus. Kind of assay: Antibacterial activity against Staphylococcus aureus UCN14 harboring ribosomal A2058U mutant.
Assay [4] has as its system Escherichia coli. The assay can be described thus: Antibacterial activity against wild-type Escherichia coli DK/pKK3535.
For assay [5], the system named is Escherichia coli. Kind of assay: Antibacterial activity against Escherichia coli SQ171/2058G harboring ribosomal A2058G mutant.

Regarding `CC[C@H]1OC(=O)[C@H](C)C(=O)C[C@@H](O[C@@H]2O[C@H](C)C[C@H](N(C)C)[C@H]2O)[C@](C)(OC/C=C/c2cnc3ccccc3c2)CCC(=O)C[C@H]2NC(=O)O[C@@]21C`, the MIC (in general, the lowest concentration found to suppress growth) with Staphylococcus aureus [1] was over 64 µg/mL; in the assay on Escherichia coli [2], 1 µg/mL (≈ 1.38 µM); against Staphylococcus aureus [3] it was over 256 µg/mL; with Escherichia coli [4] it was 2 µg/mL (≈ 2.76 µM); in the assay on Escherichia coli [5] it was over 256 µg/mL.
